{"source": "patent US12110286B2", "about": "“Benzimidazolone derived inhibitors of BCL6” (Cancer Research Technology Limited, priority 2017, dated 2024)"}
{"target": "Trx-6×His-BCL6 (human BCL6 BTB domain covering amino-acid sequence 5-129) (Homo sapiens (Human), UniProt P41182)", "assay": "HTRF in vitro assay (BCL6 / BCOR-AF633 peptide)", "assay_type": "binding", "settings": "further generated data; 1 nM Trx-6×His-BCL6, 300 nM BCOR-AF633 peptide, 0.5 nM anti-6×His-Terbium cryptate", "protocol": "(§1) The % inhibition at each concentration was calculated by normalising FRET ratio to the appropriate high (DMSO with all reagents) and low (DMSO without BCL6) controls."}
{"molecule": "C[C@@H]1CN(c2cc(Nc3ccc4c(c3)n(CCC(C)(C)O)c(=O)n4C)c(Cl)cn2)C[C@H](C)O1", "note": "[Example 36b, 5-((5-chloro-2-((2R,6S)-2,6-dimethylmorpholino)pyridin-4-yl)amino)-3-(3-hydroxy-3-methylbutyl)-1-methyl-1,3-dihydro-2H-benzo[d]imidazol-2-one]", "HTRF pIC50": 5.99}
{"molecule": "CN(C)C(=O)C1CCN(c2cc(Nc3ccc4c(c3)n(CCC(C)(C)O)c(=O)n4C)c(Cl)cn2)CC1", "note": "[Example 36c, 1-(5-chloro-4-((3-(3-hydroxy-3-methylbutyl)-1-methyl-2-oxo-2,3-dihydro-1H-benzo[d]imidazol-5-yl)amino)pyridin-2-yl)-N,N-dimethylpiperidine-4-carboxamide]", "HTRF pIC50": 5.88}
{"molecule": "C[C@@H]1C[C@H](C)CN(c2cc(Nc3ccc4c(c3)n(CCC(C)(C)O)c(=O)n4C)c(Cl)cn2)C1", "note": "[Example 36d, 5-((5-chloro-2-((3S,5R)-3,5-dimethylpiperidin-1-yl)pyridin-4-yl)amino)-3-(3-hydroxy-3-methylbutyl)-1-methyl-1,3-dihydro-2H-benzo[d]imidazol-2-one]", "HTRF pIC50": 5.48}
{"molecule": "C[C@@H]1C[C@H](C)CN(C(=O)c2cc(Nc3ccc4c(c3)n(CCC(C)(C)O)c(=O)n4C)c(Cl)cn2)C1", "note": "[Example 36e, 5-((5-chloro-2-((3R,5S)-3,5-dimethylpiperidine-1-carbonyl)pyridin-4-yl)amino)-3-(3-hydroxy-3-methylbutyl)-1-methyl-1,3-dihydro-2H-benzo[d]imidazol-2-one]", "HTRF pIC50": 6.22}
{"molecule": "C[C@@H]1CN(C(=O)c2cc(Nc3ccc4c(c3)n(CCC(C)(C)O)c(=O)n4C)c(Cl)cn2)C[C@H](C)C1(F)F", "note": "[Example 36f, 5-((5-chloro-2-((3S,5R)-4,4-difluoro-3,5-dimethylpiperidine-1-carbonyl)pyridin-4-yl)amino)-3-(3-hydroxy-3-methylbutyl)-1-methyl-1,3-dihydro-2H-benzo[d]imidazol-2-one]", "HTRF pIC50": 6.07}
{"molecule": "C[C@@H]1CN(c2ncc(Cl)c(Nc3ccc4c(c3)n(CCC(C)(C)O)c(=O)n4CCN(C)C)n2)C[C@H](C)C1(F)F", "note": "[Example 37a, 5-((5-chloro-2-((3S,5R)-4,4-difluoro-3,5-dimethylpiperidin-1-yl)pyrimidin-4-yl)amino)-1-(2-(dimethylamino)ethyl)-3-(3-hydroxy-3-methylbutyl)-1,3-dihydro-2H-benzo[d]imidazol-2-one]", "HTRF pIC50": 6.53}
{"molecule": "C[C@@H]1CN(c2ncc(Cl)c(Nc3ccc4c(c3)n(CCC(C)(C)O)c(=O)n4CCN3CCOCC3)n2)C[C@H](C)C1(F)F", "note": "[Example 37b, 5-((5-chloro-2-((3S,5R)-4,4-difluoro-3,5-dimethylpiperidin-1-yl)pyrimidin-4-yl)amino)-3-(3-hydroxy-3-methylbutyl)-1-(2-morpholinoethyl)-1,3-dihydro-2H-benzo[d]imidazol-2-one]", "HTRF pIC50": 6.47}
{"molecule": "CCOC(=O)/C=C/Cn1c(=O)n(CCC(C)(C)O)c2cc(Nc3nc(N4C[C@@H](C)C(F)(F)[C@@H](C)C4)ncc3Cl)ccc21", "note": "[Example 38a, ethyl(E)-4-(5-((5-chloro-2-((3S,5R)-4,4-difluoro-3,5-dimethylpiperidin-1-yl)pyrimidin-4-yl)amino)-3-(3-hydroxy-3-methylbutyl)-2-oxo-2,3-dihydro-1H-benzo[d]imidazol-1-yl)but-2-enoate]", "HTRF pIC50": 5.53}
{"molecule": "Cn1c(=O)n(CCC(C)(C)O)c2cc(Nc3nc(OCC(F)(F)F)ncc3Cl)ccc21", "note": "[Example 39a, 5-((5-Chloro-2-(2,2,2-trifluoroethoxy)pyrimidin-4-yl)amino)-3-(3-hydroxy-3-methylbutyl)-1-methyl-1,3-dihydro-2H-benzo[d]imidazol-2-one]", "HTRF pIC50": 6.09}
{"molecule": "C[C@@H]1CN(c2ncc(Cl)c(Nc3ccc4c(c3)n(CCC(C)(C)O)c(=O)n4CCO)n2)C[C@H](C)C1(F)F", "note": "[Example 40a, 5-[[5-chloro-2-[(3S,5R)-4,4-difluoro-3,5-dimethyl-1-piperidyl]pyrimidin-4-yl]amino]-1-(2-hydroxyethyl)-3-(3-hydroxy-3-methyl-butyl)benzimidazol-2-one]", "HTRF pIC50": 6.49}
{"molecule": "COC(Cn1c(=O)n(CCC(C)(C)O)c2cc(Nc3nc(N4C[C@@H](C)C(F)(F)[C@@H](C)C4)ncc3Cl)ccc21)OC", "note": "[Example 41a, 5-((5-chloro-2-((3S,5R)-4,4-difluoro-3,5-dimethylpiperidin-1-yl)pyrimidin-4-yl)amino)-1-(2,2-dimethoxyethyl)-3-(3-hydroxy-3-methylbutyl)-1,3-dihydro-2H-benzo[d]imidazol-2-one]", "HTRF pIC50": 6.06}
{"molecule": "Cn1c(=O)n(CCC(C)(C)O)c2cc(Nc3nc(N4CCC(C#N)CC4)ncc3Cl)ccc21", "note": "[Example 42a, 1-(5-chloro-4-((3-(3-hydroxy-3-methylbutyl)-1-methyl-2-oxo-2,3-dihydro-1H-benzo[d]imidazol-5-yl)amino)pyrimidin-2-yl)piperidine-4-carbonitrile]", "HTRF pIC50": 6.60}
{"molecule": "Cn1c(=O)n(CCC(C)(C)O)c2cc(Nc3nc(N4CCCC(C#N)C4)ncc3Cl)ccc21", "note": "(stereo not shown) [Example 42b, 1-(5-chloro-4-((3-(3-hydroxy-3-methylbutyl)-1-methyl-2-oxo-2,3-dihydro-1H-benzo[d]imidazol-5-yl)amino)pyrimidin-2-yl)piperidine-3-carbonitrile]", "HTRF pIC50": 6.46}
{"molecule": "Cn1c(=O)n(CCC(C)(C)O)c2cc(Nc3nc(N4CCC(CN5CCOCC5)CC4)ncc3Cl)ccc21", "note": "[Example 42c, 5-((5-chloro-2-(4-(morpholinomethyl)piperidin-1-yl)pyrimidin-4-yl)amino)-3-(3-hydroxy-3-methylbutyl)-1-methyl-1,3-dihydro-2H-benzo[d]imidazol-2-one]", "HTRF pIC50": 6.56}
{"molecule": "Cn1c(=O)n(CCC(C)(C)O)c2cc(Nc3nc(N4CCCC(CN5CCOCC5)C4)ncc3Cl)ccc21", "note": "(stereo not shown) [Example 42d, 5-((5-chloro-2-(3-(morpholinomethyl)piperidin-1-yl)pyrimidin-4-yl)amino)-3-(3-hydroxy-3-methylbutyl)-1-methyl-1,3-dihydro-2H-benzo[d]imidazol-2-one]", "HTRF pIC50": 6.54}
{"molecule": "Cn1cc2c(n1)CN(c1ncc(Cl)c(Nc3ccc4c(c3)n(CCC(C)(C)O)c(=O)n4C)n1)CC2", "note": "[Example 42e, 5-((5-chloro-2-(2-methyl-2,4,5,7-tetrahydro-6H-pyrazolo[3,4-c]pyridin-6-yl)pyrimidin-4-yl)amino)-3-(3-hydroxy-3-methylbutyl)-1-methyl-1,3-dihydro-2H-benzo[d]imidazol-2-one]", "HTRF pIC50": 6.68}
{"molecule": "Cn1ncc2c1CN(c1ncc(Cl)c(Nc3ccc4c(c3)n(CCC(C)(C)O)c(=O)n4C)n1)CC2", "note": "[Example 42f, 5-((5-chloro-2-(1-methyl-1,4,5,7-tetrahydro-6H-pyrazolo[3,4-c]pyridin-6-yl)pyrimidin-4-yl)amino)-3-(3-hydroxy-3-methylbutyl)-1-methyl-1,3-dihydro-2H-benzo[d]imidazol-2-one]", "HTRF pIC50": 6.58}
{"molecule": "Cn1c(=O)n(CCC(C)(C)O)c2cc(Nc3nc(N4CCCC(CO)C4)ncc3Cl)ccc21", "note": "(stereo not shown) [Example 42g, 5-((5-chloro-2-(3-(hydroxymethyl)piperidin-1-yl)pyrimidin-4-yl)amino)-3-(3-hydroxy-3-methylbutyl)-1-methyl-1,3-dihydro-2H-benzo[d]imidazol-2-one]", "HTRF pIC50": 6.92}
{"molecule": "Cn1c(=O)n(CCC(C)(C)O)c2cc(Nc3nc(N4CCC(N5CCOCC5)CC4)ncc3Cl)ccc21", "note": "[Example 42h, 5-((5-chloro-2-(4-morpholinopiperidin-1-yl)pyrimidin-4-yl)amino)-3-(3-hydroxy-3-methylbutyl)-1-methyl-1,3-dihydro-2H-benzo[d]imidazol-2-one]", "HTRF pIC50": 6.88}
{"molecule": "Cn1c(=O)n(CCC(C)(C)O)c2cc(Nc3nc(N4CCC(n5cccn5)CC4)ncc3Cl)ccc21", "note": "[Example 42i, 5-((2-(4-(1H-pyrazol-1-yl)piperidin-1-yl)-5-chloropyrimidin-4-yl)amino)-3-(3-hydroxy-3-methylbutyl)-1-methyl-1,3-dihydro-2H-benzo[d]imidazol-2-one]", "HTRF pIC50": 6.85}
{"molecule": "Cn1c(=O)n(CCC(C)(C)O)c2cc(Nc3nc(N4CCOC(CO)C4)ncc3Cl)ccc21", "note": "(stereo not shown) [Example 42j, 5-((5-chloro-2-(2-(hydroxymethyl)morpholino)pyrimidin-4-yl)amino)-3-(3-hydroxy-3-methylbutyl)-1-methyl-1,3-dihydro-2H-benzo[d]imidazol-2-one]", "HTRF pIC50": 6.81}
{"target": "Trx-6×His-BCL6 (human BCL6 BTB domain covering amino-acid sequence 5-129) (Homo sapiens (Human), UniProt P41182)", "assay": "HTRF in vitro assay (BCL6 / BCOR-AF633 peptide)", "assay_type": "binding", "settings": "result in words", "protocol": "as §1"}
{"molecule": "Cn1c(=O)n(CC2CCCN(C(=O)OC(C)(C)C)C2)c2cc(Nc3ccnc(Cl)c3C#N)ccc21", "note": "(stereo not shown) [tert-butyl 3-((6-((2-chloro-3-cyanopyridin-4-yl)amino)-3-methyl-2-oxo-2,3-dihydro-1H-benzo[d]imidazol-1-yl)methyl)piperidine-1-carboxylate]", "activity in the HTRF assay": "did not exhibit the desired activity"}
